{"source": "patent US20220339259A1", "about": "“ORALLY DELIVERED THERAPEUTICAL COMPOSITION AND USE THEREOF” (priority 2019, published 2022)", "key": {"[1]": {"settings": "cited from earlier work"}, "[2]": {"test": "Plasma ibrutinib level by HPLC after oral gavage", "design": "species or system mice", "settings": "mouse, in vivo", "protocol": "FIG. 16A-FIG. 16B. Examples of representative HPLC data. Plasma ibrutinib levels were measured by HPLC 3 hours after mice were treated by oral gavage with an equal amount of free ibrutinib and LCFA-ibrutinib. The ibrutinib peaks are indicated with arrows. There was a 3-fold increase in plasma ibrutinib level in mice treated with LCFA-ibrutinib (B) compared with those treated with free ibrutinib (A) based on the measurements of the area under the curve (AUC).\nLCFA-conjugated ibrutinib was synthesized and characterized (FIG. 15A-FIG. 15C). To compare drug uptake between free ibrutinib and LCFA-ibrutinib, mice were treated with an equal amount of free ibrutinib or LCFA-ibrutinib. Blood samples were collected at different time points, and analyzed for ibrutinib content by HPLC. Area under the curve (AUC) of ibrutinib was calculated to evaluate plasma drug concentration (FIG. 16A-FIG. 16B)."}, "[3]": {"settings": "in human; co-formulated with SNAC; cited from earlier work"}, "[4]": {"test": "Intraperitoneal glucose tolerance test, Ex4-Lys^27-LCFA in acid-neutralized mice", "format": "in vivo, male C57BL/6 mice", "protocol": "FIG. 11. […] Each mouse was treated orally with 100 μL 1M NaHCO3 to neutralize acid in the gastric fluid. […] The mice were then challenged with intraperitoneal injection of 2 g/kg glucose 1 hour after treatment.\n(§1) Intraperitoneal glucose tolerance test (GTT) was performed in male C57BL/6 mice. Briefly, 6 to 12-week-old male C57BL/6 mice were fasted overnight and treated by oral gavage with 100 μL 1M NaHCO3 to neutralize acid in the gastric fluid. One minute later, the mice were treated with PBS, 100 μg Ex4, or 100 μg Ex4-Lys^27-LCFA by oral gavage, respectively. All mice were then treated with 2 g/kg glucose by intraperitoneal injection 1 hour later. Blood samples were collected to measure blood glucose levels. Area under the curve (AUC) of blood glucose was calculated to evaluate hypoglycemic response to each treatment (FIG. 11)."}, "Caco-2 cells": {"system": "Caco-2 cells", "test": "Uptake of fatty acid-Ex4 conjugate by Caco-2 cells", "format": "cell-based, human", "settings": "Alexa594-labeled conjugates; incubation for one hour", "protocol": "FIG. 10. Examples of representative results of Caco-2 cell uptake. The fatty acid-conjugated Ex4 molecules were incubated with Alexa594 (fluorescent dye)-labeled Ex4-Lys^27-LCFA having 12, 16 and 18 carbon fatty acids (C12, C16, C18, respectively) and Ex4-Lys^27-SCFA (short chain fatty acid having 8 carbons, shown as C8) and were taken up by the cells. Levels of uptake were determined based on fluorescent intensity (MFI) inside the cells.\nCoco-2 cells were seeded in cell culture plates. Cells were incubated with either fluorescently labeled Ex4-Lys^27-SCFA (C8) or one of the fluorescently labeled Ex4-Lys^27-LCFA having a C12, C16 and C18 LCFA. After incubation for one hour, cells were washed with PBS to remove fatty acid-conjugated Ex4. A plate reader was applied to measure fluorescent intensity in each well in the cell culture plate, and the results were compared (FIG. 10)."}, "c-Myc": {"system": "c-Myc", "test": "Knockdown of c-Myc expression in Caco-2 cells (Western blot)", "format": "cell-based, human", "settings": "200 nM, without transfection reagent, 3 days", "protocol": "FIG. 18. Examples of representative measurement data of protein expression. Western blot was performed to measure the suppression of c-Myc expression by LCFA-conjugated miR-34a mimic 3 days after Caco-2 cells were treated. c-Myc is a known target of miR-34a. Its expression level was detected both after a short exposure (short expo) and a relatively long exposure (long expo).\nCaco-2 cells were seeded in 6-well cell culture plates, and treated (without any transfection reagent) with 200 nM free scramble siRNA (Scr), 200 nM free miR-34a mimic (miR-34a), or 200 nM LCFA-conjugated miR-34a (FA-miR-34a), respectively. Cells were harvested 3 days later, and lysed to prepare protein samples. Equal amount of protein samples was loaded in 10% SDS-polyacrylamide gels for Western blot analysis. The c-Myc protein was detected with an anti-c-Myc antibody. c-Myc expression levels were detected after both a short-time exposure (short expo) and relatively long-time exposure (long expo). β-Actin was served as an expression control (FIG. 18)."}, "[5]": {"test": "Intraperitoneal glucose tolerance test, GLP-1-Lys^26-LCFA in acid-neutralized mice", "format": "in vivo, male C57BL/6 mice", "protocol": "FIG. 12. Additional examples of representative glucose tolerance assay results. Glucose tolerance assays were performed after treatment with free GLP-1 analogue or GLP-1-Lys^26-LCFA. Each mouse was treated orally with 100 μL 1M NaHCO3 to neutralize acid in the gastric fluid as described before. After 1 minute, the mice were treated p.o. with PBS, 100 μg free GLP-1 analogue (GLP-1), or 100 μg GLP-1-Lys^26-LCFA. The mice were then challenged with intraperitoneal injection of 2 g/kg glucose 1 hour after treatment.\nas §1, with “GTT” for “glucose tolerance test (GTT)”, “treated” for “treated by oral gavage”, “GLP-1 analogue,” for “Ex4,”, “GLP-1-Lys^26-LCFA” for “Ex4-Lys^27-LCFA”, “12).” for “11).”"}, "[6]": {"settings": "100 μg p.o. after 100 μL 1M NaHCO3, 2 g/kg glucose i.p. 1 hour after treatment, 15 minutes after challenge"}, "[7]": {"settings": "100 μg p.o. after NaHCO3, 2 g/kg glucose i.p. 1 hour later"}}, "note": "Where two headings read alike, the source gives them in different places.", "data": [{"compound": "C=CC(=O)N1CCC[C@@H](n2nc(-c3ccc(Oc4ccccc4)cc3)c3c(N)ncnc32)C1", "note": "[ibrutinib]", "values": [{"measurement": "oral bioavailability", "setting": "[1]; fasting state", "value": 3.9, "unit": "%"}, {"measurement": "oral bioavailability", "setting": "[1]; fed state", "value": 8.4, "unit": "%"}]}, {"compound": "C=CC(=O)N1CCCC(n2nc(-c3ccc(Oc4ccccc4)cc3)c3c(NC(=O)CCCCCCCCCCCCCCCCC(=O)O)ncnc32)C1", "note": "(centres unmarked) [LCFA-ibrutinib]", "values": [{"measurement": "Area under the curve (AUC) of ibrutinib in plasma (HPLC)", "setting": "[2]", "value": 6.428}, {"measurement": "increase in plasma ibrutinib level compared with free ibrutinib (based on AUC)", "setting": "[2]; 3 h", "value": 3, "unit": "fold"}]}, {"compound": "semaglutide", "values": [{"measurement": "oral bioavailability", "setting": "[3]", "value": "barely detectable"}]}, {"compound": "Ex4-Lys^27-LCFA: conjugated long-chain fatty acid and exendin-4 through lysine residue 27; C12, C16 and C18 dicarboxylic acids used", "values": [{"measurement": "blood glucose level after glucose challenge", "setting": "[4]; [6]", "value": "mild increase in blood glucose level"}, {"measurement": "controlling blood glucose level after gavage in the acid-neutralized GI track", "setting": "[4]; [7]", "value": "effective in controlling blood glucose level"}, {"measurement": "levels of uptake by Caco-2 cells (fluorescent intensity, MFI)", "setting": "Caco-2 cells", "value": "high uptake"}]}, {"compound": "miR-34a: free microRNA-34a mimic duplex (SEQ ID. 3 and 4), unconjugated control (chain 1 UGGCAGUGUCUUAGCUGGUUGUTT; chain 2 ACAACCAGCUAAGACACUGCCATT; sense strand nucleotides 20 and 21 methylated, type of methylation not given here)", "values": [{"measurement": "suppression of c-Myc expression", "setting": "c-Myc", "value": "not"}]}, {"compound": "free GLP-1: GLP-1 analogue with AIB at position 8 (SEQ ID. 2), unconjugated", "values": [{"measurement": "blood glucose level after glucose challenge", "setting": "[5]; [6]", "value": "high blood glucose levels"}, {"measurement": "controlling blood glucose level after gavage in the acid-neutralized GI track", "setting": "[5]; [7]", "value": "not"}]}]}
